Numbers after ± are expanded uncertainties.
What was measured:
[1] = xn = mol fraction of the nth substance listed; conditions: 101.32 kPa, Liquid
[2] = excess molar enthalpy (molar enthalpy of mixing); xn = mol fraction of the nth substance listed; conditions: 101.32 kPa, Liquid, Calvet calorimetry

COC=O [methyl methanoate] + CC(C)(C)O
299.15 K
Conditions | excess molar enthalpy, [2] [kcal/mol] | excess molar volume, [1] [m3/mol]
x1 = 0.0627 | – | 2.95e-07 ± 1.7e-08
x1 = 0.0899 | 0.158 ± 0.00206 | –
x1 = 0.1002 | – | 4.51e-07 ± 1.8e-08
x1 = 0.1302 | – | 5.67e-07 ± 1.8e-08
x1 = 0.1667 | – | 6.88e-07 ± 1.9e-08
x1 = 0.202 | 0.336 ± 0.0043 | –
x1 = 0.2419 | – | 8.67e-07 ± 2e-08
x1 = 0.2873 | 0.451 ± 0.00574 | –
x1 = 0.319 | – | 9.88e-07 ± 2e-08
x1 = 0.3526 | – | 1.025e-06 ± 2e-08
x1 = 0.3657 | 0.528 ± 0.00669 | –
x1 = 0.4033 | – | 1.061e-06 ± 2e-08
x1 = 0.4323 | 0.57 ± 0.00717 | –
x1 = 0.4976 | – | 1.068e-06 ± 2e-08
x1 = 0.5033 | 0.594 ± 0.00741 | –
x1 = 0.5076 | – | 1.067e-06 ± 2e-08
x1 = 0.5567 | 0.594 ± 0.00741 | –
x1 = 0.5726 | – | 1.036e-06 ± 2e-08
x1 = 0.6017 | 0.581 ± 0.00717 | –
x1 = 0.6163 | – | 9.94e-07 ± 2e-08
x1 = 0.6287 | 0.569 ± 0.00717 | –
x1 = 0.6512 | – | 9.55e-07 ± 2e-08
x1 = 0.6747 | 0.538 ± 0.00669 | –
x1 = 0.7222 | 0.491 ± 0.00621 | 8.68e-07 ± 2e-08
x1 = 0.7382 | – | 8.34e-07 ± 1.9e-08
x1 = 0.7721 | 0.433 ± 0.0055 | –
x1 = 0.7939 | – | 7.46e-07 ± 1.9e-08
x1 = 0.8111 | – | 7.04e-07 ± 1.9e-08
x1 = 0.8206 | 0.364 ± 0.00454 | –
x1 = 0.8697 | 0.282 ± 0.00359 | –
x1 = 0.8902 | – | 5.01e-07 ± 1.8e-08
x1 = 0.9187 | 0.186 ± 0.00239 | –
x1 = 0.9574 | – | 2.43e-07 ± 1.7e-08
x1 = 0.9598 | 0.0997 ± 0.00139 | –

CCC(=O)OC [methyl propanoate] + CC(C)(C)O
Conditions | excess molar enthalpy [kcal/mol] | excess molar volume [m3/mol]
[1], 303.15 K, x1 = 0.0517 | – | 1.52e-07 ± 1.6e-08
[1], 303.15 K, x1 = 0.1081 | – | 2.93e-07 ± 1.7e-08
[1], 303.15 K, x1 = 0.1525 | – | 3.88e-07 ± 1.7e-08
[1], 303.15 K, x1 = 0.202 | – | 4.71e-07 ± 1.8e-08
[1], 303.15 K, x1 = 0.2516 | – | 5.43e-07 ± 1.8e-08
[1], 303.15 K, x1 = 0.3129 | – | 6.1e-07 ± 1.8e-08
[1], 303.15 K, x1 = 0.3638 | – | 6.48e-07 ± 1.9e-08
[1], 303.15 K, x1 = 0.406 | – | 6.67e-07 ± 1.9e-08
[1], 303.15 K, x1 = 0.4603 | – | 6.78e-07 ± 1.9e-08
[1], 303.15 K, x1 = 0.5167 | – | 6.79e-07 ± 1.9e-08
[1], 303.15 K, x1 = 0.5558 | – | 6.68e-07 ± 1.9e-08
[1], 303.15 K, x1 = 0.6086 | – | 6.41e-07 ± 1.8e-08
[1], 303.15 K, x1 = 0.6546 | – | 6.07e-07 ± 1.8e-08
[1], 303.15 K, x1 = 0.7197 | – | 5.43e-07 ± 1.8e-08
[1], 303.15 K, x1 = 0.752 | – | 4.91e-07 ± 1.8e-08
[1], 303.15 K, x1 = 0.8122 | – | 4.15e-07 ± 1.7e-08
[1], 303.15 K, x1 = 0.8545 | – | 3.48e-07 ± 1.7e-08
[1], 303.15 K, x1 = 0.9065 | – | 2.53e-07 ± 1.7e-08
[1], 303.15 K, x1 = 0.9394 | – | 1.73e-07 ± 1.6e-08
[1], 318.15 K, x1 = 0.075 | – | 1.94e-07 ± 1.6e-08
[1], 318.15 K, x1 = 0.1476 | – | 3.15e-07 ± 1.7e-08
[1], 318.15 K, x1 = 0.1952 | – | 4.16e-07 ± 1.7e-08
[1], 318.15 K, x1 = 0.2636 | – | 4.98e-07 ± 1.8e-08
[1], 318.15 K, x1 = 0.3159 | – | 5.59e-07 ± 1.8e-08
[1], 318.15 K, x1 = 0.3628 | – | 6.06e-07 ± 1.8e-08
[1], 318.15 K, x1 = 0.4165 | – | 6.39e-07 ± 1.8e-08
[1], 318.15 K, x1 = 0.4931 | – | 6.48e-07 ± 1.9e-08
[1], 318.15 K, x1 = 0.5472 | – | 6.41e-07 ± 1.8e-08
[1], 318.15 K, x1 = 0.6296 | – | 6.09e-07 ± 1.8e-08
[1], 318.15 K, x1 = 0.6429 | – | 5.87e-07 ± 1.8e-08
[1], 318.15 K, x1 = 0.7013 | – | 5.41e-07 ± 1.8e-08
[1], 318.15 K, x1 = 0.795 | – | 4.27e-07 ± 1.8e-08
[1], 318.15 K, x1 = 0.8267 | – | 3.68e-07 ± 1.7e-08
[1], 318.15 K, x1 = 0.8822 | – | 2.81e-07 ± 1.7e-08
[1], 318.15 K, x1 = 0.9493 | – | 1.39e-07 ± 1.6e-08
[2], 299.15 K, x1 = 0.0603 | 0.1 ± 0.00136 | –
[2], 299.15 K, x1 = 0.1414 | 0.213 ± 0.00263 | –
[2], 299.15 K, x1 = 0.2285 | 0.317 ± 0.00406 | –
[2], 299.15 K, x1 = 0.3164 | 0.395 ± 0.00502 | –
[2], 299.15 K, x1 = 0.3971 | 0.442 ± 0.0055 | –
[2], 299.15 K, x1 = 0.4573 | 0.461 ± 0.00574 | –
[2], 299.15 K, x1 = 0.4705 | 0.464 ± 0.00574 | –
[2], 299.15 K, x1 = 0.5159 | 0.467 ± 0.00574 | –
[2], 299.15 K, x1 = 0.5343 | 0.465 ± 0.00574 | –
[2], 299.15 K, x1 = 0.5899 | 0.453 ± 0.00574 | –
[2], 299.15 K, x1 = 0.6328 | 0.435 ± 0.0055 | –
[2], 299.15 K, x1 = 0.6447 | 0.428 ± 0.00526 | –
[2], 299.15 K, x1 = 0.7116 | 0.387 ± 0.00478 | –
[2], 299.15 K, x1 = 0.7778 | 0.328 ± 0.00406 | –
[2], 299.15 K, x1 = 0.8496 | 0.244 ± 0.00311 | –
[2], 299.15 K, x1 = 0.9351 | 0.115 ± 0.00151 | –
[2], 318.15 K, x1 = 0.0486 | 0.0779 ± 0.0011 | –
[2], 318.15 K, x1 = 0.1007 | 0.153 ± 0.00198 | –
[2], 318.15 K, x1 = 0.1707 | 0.24 ± 0.00311 | –
[2], 318.15 K, x1 = 0.2374 | 0.31 ± 0.00382 | –
[2], 318.15 K, x1 = 0.3021 | 0.364 ± 0.00454 | –
[2], 318.15 K, x1 = 0.3578 | 0.4 ± 0.00502 | –
[2], 318.15 K, x1 = 0.4076 | 0.425 ± 0.00526 | –
[2], 318.15 K, x1 = 0.4404 | 0.439 ± 0.0055 | –
[2], 318.15 K, x1 = 0.4827 | 0.445 ± 0.0055 | –
[2], 318.15 K, x1 = 0.5312 | 0.45 ± 0.00574 | –
[2], 318.15 K, x1 = 0.582 | 0.441 ± 0.0055 | –
[2], 318.15 K, x1 = 0.6358 | 0.423 ± 0.00526 | –
[2], 318.15 K, x1 = 0.6986 | 0.393 ± 0.00502 | –
[2], 318.15 K, x1 = 0.7666 | 0.336 ± 0.0043 | –
[2], 318.15 K, x1 = 0.8289 | 0.272 ± 0.00359 | –
[2], 318.15 K, x1 = 0.8931 | 0.189 ± 0.00263 | –
[2], 318.15 K, x1 = 0.9582 | 0.0935 ± 0.00146 | –

Source: the NIST ThermoML archive (doi:10.1021/je034290l)
